This is an account of results in patent US12233070B2, “Methods for treating benzodiazepine misuse/use disorder” (University of M[…] Center, priority 2020, dated 2025).

One data set concerns Sprague-Dawley rats. The data set is described as follows: Pulmonary ventilation, whole body plethysmography. It is filed as in vivo, rat. The note with it: over the doses tested, i.p.; N=8 rats. The procedure: We first assessed the effects of TPA023B, in comparison with alprazolam, using whole body plethysmography (WBP; DSI systems). For these studies, adult male Sprague-Dawley rats (n=8) were habituated to the chambers for 30 min. The chamber was then filled with 21% oxygen, sealed, and pressure fluctuation measured for 1 min. Next, the chamber was opened and the rats were injected with alprazolam or TPA023B, i.p., and placed into the sealed chamber for a 15 min pretreatment time. The chamber was again filled with 21% oxygen, and for 1 min, fluctuating pressure amounts were recorded to obtain tidal volume (lung capacity), breaths/minute, and minute volume (lung capacity per unit time).

Data set [1] concerns rhesus monkeys. The data set is described as follows: Food self-administration (PR) after TPA023B pretreatment. In kind it is in vivo, rhesus monkey. The note with it: up to 0.3 mg/kg TPA023B i.v. pretreatment; 2 pellets/delivery. An excerpt: To evaluate the extent to which suppression of lever-pressing behavior by TPA023B represents non-specific inhibition, we also tested food self-administration under the PR schedule. For these experiments, test sessions were scheduled similar to those with midazolam dose/vehicle, except that 2 food pellets (1-g BioServ flavored food pellets) were available as reinforcers rather than midazolam dose. All other aspects of the test was the same, including response requirements and TPA023B pretreatment conditions.

Data set [2] relates to rhesus monkeys. The data set is described as follows: i.v. self-administration under progressive-ratio (PR) schedule. In kind it is in vivo, rhesus monkey. The note with it: dose at which self-administration was highest; n=4 monkeys; FIG. 5. An excerpt: The abuse potential of novel compounds can be determined by use of i.v. self-administration procedures, in which a compound is available to a subject previously trained to press a lever to obtain a known drug of abuse. Our standard procedure is to use a progressive-ratio (PR) schedule, in which an increasing number of responses are required to obtain an injection. The last response requirement completed is referred to as a “break point” (BP) and represents the maximum amount of “work” a subject will perform to obtain the drug or compound.
In the present example, eight rhesus monkeys (4 females, 4 males) were trained to respond under a schedule of i.v. midazolam (a conventional benzodiazepine) injection at 0.03 mg/kg/injection. Once self-administration had been acquired (>20 injections/daily 2-hour sessions), monkeys were trained under the PR schedule as described by Shinday et al. (2013). Daily experimental sessions consisted of five components, each made up of four trials (i.e., 20 trials total). […]
In order to directly compare lorazepam and TPA023B self-administration, we here analyzed BP values at the doses that maintained the highest level of mean injections/session and compared these BP values with those obtained after vehicle tests.

The subject of data set [3] is rodent, squirrel monkey. Particulars: rodent and squirrel monkey models; cited from earlier work.
For data set [4], the system named is CNS benzodiazepine binding sites. The note with it: rodents and primates; cited from earlier work.
Data set [5] has as its target α1 subunit-containing GABAA receptors (Homo sapiens, UniProt P14867+P18507). Details: key to Subtype α1: act as partial positive modulators for particular subtype combinations; none: zero efficacy (i.e., antagonism) at other subtypes. The note with it: cited from earlier work.
Data set [6] concerns benzodiazepine binding sites. The note with it: cited from earlier work.
Data set [7] concerns rhesus monkeys. The data set is described as follows: Observation/sedation, focal animal behavioral scoring. It is filed as in vivo, rhesus monkey. Particulars: i.v. The procedure: For the data shown here, the behavior of each monkey (n=4 total) was scored using a focal animal approach as described previously (Duke et al. 2018, J Pharmacol Exp Ther 366: 145-57). Briefly, a trained observer blind to the drug treatments observed a specific monkey for 5 min and recorded each instance that a particular behavior occurred during 15-s intervals. Scores for each behavior were calculated as the number of 15-s bins in which the behavior occurred (e.g., a maximum score would be 20). For sedation measures, structured exposure to stimuli were included in the observation sessions (Duke et al., 2018). […] Specifically, the observer presented three stimuli: 1) walked at a normal pace towards the cage, 2) spoke the animal's name, and 3) moved the lock used to secure the door of the cage. […] If the monkey attended more slowly (i.e., >3 s following stimuli), the observer scored “moderate sedation”.
The assessment of sedation was initiated during the 5-min sampling period if the animal presented, at any time during that period, with its eyes closed for longer than 3 s. The result of this assessment was recorded for each remaining 15-sec interval of the 60-sec epoch unless eyes opened. Afterwards, eyes closing again initiated the assessment. If eyes remained closed, then the assessment was repeated at the beginning of the next 60-sec epoch 15-sec interval. Therefore, the maximum score for sedation during a 5-min period was 20 (four possible scores for 4×15-sec intervals per min, 5 min total; i.e., 4 possible scores×5 min=20). The order in which animals were observed and the observer performing the scoring each day was randomized. Four observers participated in the scoring throughout the duration of the study; each observer underwent a minimum of 20 hours of training and met an inter-observer reliability criterion of ≥90% agreement with all other observers.
The five-min sampling periods were repeated at multiple times following i.v. injection of TPA023B or vehicle (minutes post injection): 5, 10, 20, 40, 80, 160, 320. Scores were cumulated across the time periods, resulting in a maximum possible cumulative score of 140. TPA023B was compared with alprazolam, and the results have been published by Duke et al. (2018).

The subject of data set [8] is rodent, squirrel monkey. Particulars: rodent rotarod and chain-pulling, squirrel monkey lever pressing; cited from earlier work.
[9] abbreviates: at least one dose significantly different from vehicle, out of 22 behaviors, N = 4 monkeys.

Each structure is given as a SMILES string. Entries after “also recorded” stand apart in the source; their conditions may differ.

α1 subunit-containing GABAA receptors, sequence (P14867 28-456): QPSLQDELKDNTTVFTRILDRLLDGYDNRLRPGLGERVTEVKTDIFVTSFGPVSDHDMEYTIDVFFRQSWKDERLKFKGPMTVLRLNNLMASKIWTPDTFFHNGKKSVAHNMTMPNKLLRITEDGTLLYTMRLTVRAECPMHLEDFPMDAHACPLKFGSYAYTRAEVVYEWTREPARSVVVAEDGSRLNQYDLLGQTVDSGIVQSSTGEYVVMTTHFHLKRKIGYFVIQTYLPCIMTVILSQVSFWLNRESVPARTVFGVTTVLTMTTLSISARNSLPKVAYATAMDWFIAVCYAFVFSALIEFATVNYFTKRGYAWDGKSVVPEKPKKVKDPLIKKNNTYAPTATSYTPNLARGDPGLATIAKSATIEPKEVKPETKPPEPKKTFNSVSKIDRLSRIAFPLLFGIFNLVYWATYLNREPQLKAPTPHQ
α1 subunit-containing GABAA receptors, sequence (P18507 40-475): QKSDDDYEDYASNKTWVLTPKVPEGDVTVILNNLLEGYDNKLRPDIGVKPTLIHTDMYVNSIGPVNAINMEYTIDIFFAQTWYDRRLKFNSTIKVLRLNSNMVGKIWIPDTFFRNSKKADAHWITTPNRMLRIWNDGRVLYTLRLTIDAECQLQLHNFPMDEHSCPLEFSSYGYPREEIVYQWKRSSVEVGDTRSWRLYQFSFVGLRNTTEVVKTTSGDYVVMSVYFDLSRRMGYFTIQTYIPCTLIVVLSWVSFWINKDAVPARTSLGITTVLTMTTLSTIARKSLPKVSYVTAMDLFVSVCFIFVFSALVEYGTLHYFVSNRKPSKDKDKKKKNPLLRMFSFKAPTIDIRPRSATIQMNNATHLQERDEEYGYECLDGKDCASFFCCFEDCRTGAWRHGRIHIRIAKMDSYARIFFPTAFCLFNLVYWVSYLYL
α1 subunit-containing GABAA receptors, sequence (P28472 26-473 partner): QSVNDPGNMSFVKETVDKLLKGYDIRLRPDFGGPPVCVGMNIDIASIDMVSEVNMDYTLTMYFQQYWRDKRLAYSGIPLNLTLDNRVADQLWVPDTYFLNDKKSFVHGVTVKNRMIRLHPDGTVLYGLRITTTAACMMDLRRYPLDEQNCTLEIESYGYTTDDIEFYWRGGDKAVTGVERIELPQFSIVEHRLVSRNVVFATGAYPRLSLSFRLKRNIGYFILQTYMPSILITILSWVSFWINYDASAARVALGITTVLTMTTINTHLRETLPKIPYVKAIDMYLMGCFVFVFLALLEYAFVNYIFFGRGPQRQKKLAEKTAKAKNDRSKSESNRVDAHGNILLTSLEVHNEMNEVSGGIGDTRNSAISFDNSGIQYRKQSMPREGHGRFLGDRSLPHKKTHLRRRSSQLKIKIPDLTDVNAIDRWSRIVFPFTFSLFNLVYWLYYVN

Take `CC(C)(O)c1cnn2c(-c3ccc(F)c(-c4c(F)cccc4C#N)c3)cnc2n1` [TPA023B]: the “any ventilatory parameter (breathing frequency, tidal volume, minute volume)” value in the data set with Sprague-Dawley rats is “did not alter; also recorded: no effects”. In addition, the “effect on food-maintained responding” value in the data set with rhesus monkeys [1] was “did not alter”. The “median break point (BP), highest response requirement” value in the data set with rhesus monkeys [2] is reported as 160. Further, the anxiolytic-like effects result in the data set with rodent, squirrel monkey [3] was “anxiolytic-like effects”. Further, in data set [4], the “occupancy of CNS benzodiazepine binding sites at minimally-effective doses in anxiolysis assays” value is recorded as 61-88%. Moreover, the “Subtype α1” value in [5] is on record as “none”. Also, in [6] (1.0 and 3.0 mg/kg), the “occupancy of benzodiazepine binding sites” value is recorded as “up to 95%”. In addition, the “occupancy of benzodiazepine binding sites in brain” value in data set [6] (3.0 and 10 mg/kg) was ≤ 95%. For the same molecule, in the data set on rhesus monkeys [7] (1.0 mg/kg), the “highest tolerated dose relative to lowest dose inducing rest/sleep posture” value stood at 30 fold. Besides, in the data set on rhesus monkeys [7] (setting [9]), the “Significant behavioral effects: Decrease” value is “Tactile/Oral Exploration” and the “Significant behavioral effects: Increase” value is listed as “Rest/Sleep Posture”. Besides, in the data set on rhesus monkeys [7] (up to doses of 1.0 mg/kg), the tolerability entry is given as “well-tolerated”. Besides, the sedation entry in the data set with rodent, squirrel monkey [8] is “minimally sedating”.
